In series [1] the target is T1, Oxytocin receptor (Homo sapiens) (UniProt P30559).
T1 sequence (whole entry): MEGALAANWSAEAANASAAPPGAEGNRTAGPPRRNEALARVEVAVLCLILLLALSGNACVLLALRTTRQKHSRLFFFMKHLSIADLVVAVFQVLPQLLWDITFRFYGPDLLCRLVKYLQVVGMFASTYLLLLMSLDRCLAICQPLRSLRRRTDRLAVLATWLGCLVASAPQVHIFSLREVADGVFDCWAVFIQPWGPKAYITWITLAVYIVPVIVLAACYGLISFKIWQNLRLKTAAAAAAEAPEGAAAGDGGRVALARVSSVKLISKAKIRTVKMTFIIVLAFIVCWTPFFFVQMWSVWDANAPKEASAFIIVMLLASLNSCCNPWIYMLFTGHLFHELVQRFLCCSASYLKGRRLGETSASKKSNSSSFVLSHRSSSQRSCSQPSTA
The series is described as follows: Agonist activity at human OTR expressed in CHO cells assessed as increase in calcium flux after 60 to 120 mins by fluo-4 dye based FLIPR assay relative to control. Format: functional, cell-based. On the technique in general: Calcium flux is commonly read through the fluorescence of an indicator in the cells.

Another series deals with Vasopressin V1a receptor (Homo sapiens, UniProt P37288). Briefly: Agonist activity at vasopressin 1a receptor (unknown origin). Format: functional.
Vasopressin V1a receptor, sequence (P37288 whole entry): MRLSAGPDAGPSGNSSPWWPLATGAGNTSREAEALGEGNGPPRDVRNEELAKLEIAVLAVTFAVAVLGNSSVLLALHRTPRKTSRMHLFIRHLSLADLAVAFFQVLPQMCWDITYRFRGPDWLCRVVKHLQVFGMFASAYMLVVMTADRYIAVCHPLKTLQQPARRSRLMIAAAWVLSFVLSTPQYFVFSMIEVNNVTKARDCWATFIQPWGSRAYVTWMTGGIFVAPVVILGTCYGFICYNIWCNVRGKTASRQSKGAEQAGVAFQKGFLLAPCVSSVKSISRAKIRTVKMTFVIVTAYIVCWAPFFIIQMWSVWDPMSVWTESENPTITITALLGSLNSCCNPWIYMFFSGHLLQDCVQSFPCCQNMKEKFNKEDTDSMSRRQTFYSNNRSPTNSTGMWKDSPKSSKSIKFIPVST
The next series concerns the target T2, Oxytocin receptor (Homo sapiens, UniProt P30559).
T2 sequence (P30559 whole entry): T1 sequence (whole entry)
Briefly: Agonist activity at human OTR expressed in CHO cells assessed as increase in calcium flux after 60 to 120 mins by fluo-4 dye based FLIPR assay. Format: functional, cell-based.

A short description of series [2]: Stability in human liver microsomes by LC/MS/MS analysis. Format: ADME, microsome. The conditions noted are these: read-out: Stability. (In general: Liver microsomes are vesicles of endoplasmic reticulum, rich in cytochrome P450 enzymes.)

The EC50 is the concentration that produces a half-maximal response.

The structures appear in SMILES notation. *1 amine or outer side, *2 acyl side, *3 side chain or, on linkers, in order; H or OH if unused. Where a SMILES comes first, the peptide text is derived from it. Bridges are numbered along the chain shown (N, C = ends). [ ]: non-standard residue; d: D form. The star is where a group is joined. X3 = c1ccc(OC[C@@H]2CCCN2*)cc1; X5 = c1ccc(NC[C@@H]2CCCN2*)cc1; X8 = c1ccc(CC[C@@H]2CCCN2*)cc1; Cysteamide = C(CS[*:3])N[*:1]; X1 = c1ccc([C@@H]2CCCN2*)nc1; X6 = Cc1nnc([C@@H]2CCCN2*)o1; X9 = C1CCN(C2CCN(*)CC2)C1; Pyrrolidide = C1CCN(*)C1; X4 = COC[C@@H]1CCCN1*; X10 = CN1CCCN(*)CC1; X2 = C[C@H]1CCCN1*; X7 = CC(C)CCN(C)*; Mpa = O=C(O)CCS

On to `CC[C@H](C)[C@@H]1NC(=O)[C@H](Cc2ccc(O)cc2)NC(=O)CCSSC[C@@H](C(=O)N2CCC[C@H]2C(N)=O)NC(=O)[C@H](CC(N)=O)NC(=O)[C@H](CCC(N)=O)NC1=O`, for which, in series [1], the Efficacy is 89%. For the same molecule, the EC50 on Vasopressin V1a receptor was above 1000 nM; at Oxytocin receptor, 1.3 nM. For the same molecule, the CLint scaled in series [2] was below 8 mL/min/kg.

Take `CC[C@H](C)[C@@H]1NC(=O)[C@H](Cc2ccc(O)cc2)NC(=O)CCSSC[C@@H](C(=O)N2CCC[C@H]2C(=O)N[C@@H](CC(C)C)C(N)=O)NC(=O)[C@H](CC(N)=O)NC(=O)[C@H](CCC(N)=O)NC1=O`: in series [1], the Efficacy was found to be 82%. The EC50 was above 1000 nM on Vasopressin V1a receptor and 1.8 nM at Oxytocin receptor. Further, the CLint scaled in series [2] was below 8 mL/min/kg.

On to `CC[C@H](C)[C@@H]1NC(=O)[C@H](Cc2ccc(O)cc2)NC(=O)CCSSC[C@@H](C(N)=O)NC(=O)[C@H](CC(N)=O)NC(=O)[C@H](CCC(N)=O)NC1=O`, for which the Efficacy in series [1] turned out to be 90%. Also, the EC50 is above 1000 nM on Vasopressin V1a receptor and 5.4 nM at Oxytocin receptor. For the same molecule, the CLint scaled in series [2] is below 8 mL/min/kg.

Take `CC[C@H](C)[C@@H]1NC(=O)[C@H](Cc2ccc(O)cc2)NC(=O)CCSSC[C@@H](C(=O)N2CCC[C@H]2C(=O)N[C@@H](CC(C)C)C(=O)NCC(N)=O)NC(=O)[C@H](CC(N)=O)NC(=O)[C@H](CCC(N)=O)NC1=O`: in series [1], the Efficacy worked out at 106%. Further, the CLint scaled in series [2] was below 8 mL/min/kg.

As to `CC[C@H](C)[C@@H]1NC(=O)[C@H](Cc2ccc(O)cc2)NC(=O)CCSSCCNC(=O)[C@H](CC(N)=O)NC(=O)[C@H](CCC(N)=O)NC1=O` ([Mpa]YIQN-Cysteamide; disulfide 1-C), in series [1], the Efficacy turned out to be 67%. Also, the EC50 at Vasopressin V1a receptor is above 1000 nM; on Oxytocin receptor, 28 nM. Besides, the CLint scaled in series [2] was below 8 mL/min/kg.

As for `CC[C@H](C)[C@@H]1NC(=O)[C@H](Cc2ccc(O)cc2)NC(=O)CCSSC[C@@H](C(=O)N2CCCC2)NC(=O)[C@H](CC(N)=O)NC(=O)[C@H](CCC(N)=O)NC1=O` ([Mpa]YIQNC-Pyrrolidide; disulfide 1-6), the Efficacy in series [1] was found to be 97%. The EC50 on Vasopressin V1a receptor is above 1000 nM; on Oxytocin receptor, 0.51 nM. Also, in series [2], the CLint scaled is below 8 mL/min/kg.

As for `CC[C@H](C)[C@@H]1NC(=O)[C@H](Cc2ccc(O)cc2)NC(=O)CCSSC[C@@H](C(=O)N2CCC[C@H]2c2ccccn2)NC(=O)[C@H](CC(N)=O)NC(=O)[C@H](CCC(N)=O)NC1=O` ([Mpa]YIQNC-X1; disulfide 1-6), the Efficacy in series [1] turned out to be 80%. Further, the EC50 at Vasopressin V1a receptor is above 1000 nM; on Oxytocin receptor it was 0.83 nM. In addition, the CLint scaled in series [2] was below 8 mL/min/kg.

Consider `CC[C@H](C)[C@@H]1NC(=O)[C@H](Cc2ccc(O)cc2)NC(=O)CCSSC[C@@H](C(=O)N2CCC[C@@H]2C)NC(=O)[C@H](CC(N)=O)NC(=O)[C@H](CCC(N)=O)NC1=O` ([Mpa]YIQNC-X2; disulfide 1-6), for which the Efficacy in series [1] was 84%. Besides, the EC50 on Vasopressin V1a receptor is above 1000 nM; at Oxytocin receptor, 0.6 nM. Also, the CLint scaled in series [2] was below 8 mL/min/kg.

For the molecule `CC[C@H](C)[C@@H]1NC(=O)[C@H](Cc2ccc(O)cc2)NC(=O)CCSSC[C@@H](C(=O)N2CCC[C@H]2COc2ccccc2)NC(=O)[C@H](CC(N)=O)NC(=O)[C@H](CCC(N)=O)NC1=O` ([Mpa]YIQNC-X3; disulfide 1-6), the Efficacy in series [1] came to 52%. The values for the 50% effective concentration (EC50) on Vasopressin V1a receptor and on Oxytocin receptor were above 1000 nM and 194 nM, respectively. Also, the CLint scaled in series [2] is 123 mL/min/kg.

Take `CC[C@H](C)[C@@H]1NC(=O)[C@H](Cc2ccc(O)cc2)NC(=O)CCSSC[C@@H](C(=O)N2CCC[C@H]2COC)NC(=O)[C@H](CC(N)=O)NC(=O)[C@H](CCC(N)=O)NC1=O` ([Mpa]YIQNC-X4; disulfide 1-6): the Efficacy in series [1] was determined as 91%. Besides, the values for the EC50 on Vasopressin V1a receptor and on Oxytocin receptor were above 1000 nM and 0.44 nM, respectively. Besides, in series [2], the CLint scaled was below 8 mL/min/kg.

For `CC[C@H](C)[C@@H]1NC(=O)[C@H](Cc2ccc(O)cc2)NC(=O)CCSSC[C@@H](C(=O)N2CCC[C@H]2CNc2ccccc2)NC(=O)[C@H](CC(N)=O)NC(=O)[C@H](CCC(N)=O)NC1=O` ([Mpa]YIQNC-X5; disulfide 1-6), the Efficacy in series [1] was determined as 76%. The figures for the EC50 on Vasopressin V1a receptor and on Oxytocin receptor were above 1000 nM and 0.77 nM, respectively. For the same molecule, the CLint scaled in series [2] turned out to be 40 mL/min/kg.

Turning to `CC[C@H](C)[C@@H]1NC(=O)[C@H](Cc2ccc(O)cc2)NC(=O)CCSSC[C@@H](C(=O)N2CCC[C@H]2c2nnc(C)o2)NC(=O)[C@H](CC(N)=O)NC(=O)[C@H](CCC(N)=O)NC1=O` ([Mpa]YIQNC-X6; disulfide 1-6), in series [1], the Efficacy is 77%. The 50% effective concentration (EC50) is above 1000 nM at Vasopressin V1a receptor and 0.6 nM at Oxytocin receptor. The CLint scaled in series [2] is below 8 mL/min/kg.

On to `CC[C@H](C)[C@@H]1NC(=O)[C@H](Cc2ccc(O)cc2)NC(=O)CCSSC[C@@H](C(=O)N2CCC[C@H]2CCc2ccccc2)NC(=O)[C@H](CC(N)=O)NC(=O)[C@H](CCC(N)=O)NC1=O` ([Mpa]YIQNC-X8; disulfide 1-6), for which, in series [1], the Efficacy came out at 59%. Moreover, the EC50 on Vasopressin V1a receptor was above 1000 nM; on Oxytocin receptor, 5.2 nM. Besides, the CLint scaled in series [2] stood at 153 mL/min/kg.

Consider `CC[C@H](C)[C@@H]1NC(=O)[C@H](Cc2ccc(O)cc2)NC(=O)CCSSC[C@@H](C(=O)N2CCC[C@H]2C(=O)N(C)CCC(C)C)NC(=O)[C@H](CC(N)=O)NC(=O)[C@H](CCC(N)=O)NC1=O` ([Mpa]YIQNCP-X7; disulfide 1-6), for which the Efficacy in series [1] came to 94%. Besides, the EC50 at Vasopressin V1a receptor was above 1000 nM; at Oxytocin receptor it was 1.8 nM. Besides, the CLint scaled in series [2] turned out to be 25.5 mL/min/kg.

On to `CC[C@H](C)[C@@H]1NC(=O)[C@H](Cc2ccc(O)cc2)NC(=O)CCSSC[C@@H](C(=O)N2CCC[C@H]2C(=O)N2CCC(N3CCCC3)CC2)NC(=O)[C@H](CC(N)=O)NC(=O)[C@H](CCC(N)=O)NC1=O` ([Mpa]YIQNCP-X9; disulfide 1-6), for which the Efficacy in series [1] is 98%. For the same molecule, the EC50 at Vasopressin V1a receptor was above 1000 nM; on Oxytocin receptor, 6.8 nM.

Consider `CC[C@H](C)[C@@H]1NC(=O)[C@H](Cc2ccc(O)cc2)NC(=O)CCSSC[C@@H](C(=O)N2CCC[C@H]2C(=O)N2CCCN(C)CC2)NC(=O)[C@H](CC(N)=O)NC(=O)[C@H](CCC(N)=O)NC1=O` ([Mpa]YIQNCP-X10; disulfide 1-6), for which the Efficacy in series [1] is 98%. For the same molecule, the EC50 at Vasopressin V1a receptor is above 1000 nM; at Oxytocin receptor it was 3.6 nM.

For the molecule `CC[C@H](C)[C@@H]1NC(=O)[C@H](Cc2ccc(O)cc2)NC(=O)[C@@H](N)CSSC[C@@H](C(=O)N2CCC[C@H]2C(=O)N[C@@H](CC(C)C)C(=O)NCC(N)=O)NC(=O)[C@H](CC(N)=O)NC(=O)[C@H](CCC(N)=O)NC1=O` [OXYTOCIN], in series [1], the Efficacy amounted to 102%. In addition, the CLint scaled in series [2] is 30 mL/min/kg.
